Source: patent US20030049267A1, “Systemic immune response induced by mucosal administration of lipid-tailed polypeptides without adjuvant” (INSTITUT PASTEUR, priority 1999, published 2003)
*: point of attachment. Palmitoyl = CCCCCCCCCCCCCCCC(=O)*

Key:
Assay type in all cases: in vivo
[1] = system: BALB/c, C3H/HeJ, or C57BL/6 mice; assay: Serum polypeptide-specific IgG ELISA after immunization with LSA3-NRII polypeptides
Excerpt: To investigate the ability of lipid-tailed polypeptides to induce systemic antibody responses using mucosal route, the LSA3-NRII lipid-tailed polypeptide was administrated either intranasally (I.N.) or sub-lingually (S.L.) in BALB/c, C3H/HeJ which were found previously to respond strongly to the epitopes of LSA3-NRII, or C57BL/6 mice which is poorly responsive. Negative and positive controls received respectively, the non-lipidated polypeptide administrated by IN and S.L. route, or the same lipid-tailed polypeptide injected subcutaneously (S.C.) without adjuvant.
Individual blood samples were obtained via the retro-orbital plexus by 9 to 15 days post immunization (dpi) and sera were stored at-70i C until assayed for IgG, IgA and IgM polypeptide- and parasite-specific Abs. The presence of anti-peptide antibodies in sera was determined using Enzyme-linked immunosorbent assay (ELISA) as reported previously (BenMohamed et coll., 1997). ELISA plates (Nunc, Roskilde, Denmark) were coated overnight at 4i C with 0.1 ml of LSA3-NRII or LSA1-J polypeptide solution at 3 zg/ml in PBS buffer pH 7.4 containing 3% BSA. The LSA1-J polypeptide was used as the irrelevant control of LSA3-NRII and vice versa. The plates were washed twice in PBS with 0.01% Tween-20 (PBS-T), blocked for 1 hr in PBS-T supplemented with 1% BSA prior to the addition of 0.1 ml of 1/100 dilution of mouse sera. The plates were then incubated at 37iC for one hour. After washing, the bound IgG were detected using peroxidase-conjugated goat anti-mouse IgG (Biosys, Compiegne, France) added at a 1/2000 dilution. Following incubation at 37iC for 1 hour and a final wash, 50 μl of 0.30% H2O2 containing orthophenylenediamine dihydrochloride (OPD, Sigma, St. Louis), dissolved in 0.1 M citrate buffer (pH 5.0) were added to each well at room temperature. The OD450 nm was measured using a multichannel spectrophotometer (Titertek Multiskan MCC. 340). Individual sera from all groups were diluted 1/100 and analyzed separately. Preimmune sera were used as negative controls and the results were expressed either as optical density (OD) at 450nm or as ELISA-RATIO calculated as follows: OD450 nm postimmune sera divided by OD450 nm preimmune sera. […] Isotype analysis of mouse was carried out using class specific […] Goat anti-Mouse IgA, IgM, IgGI, IgG2a, IgG2b or IgG3 HRP-Labeled (Southern Biotechnology Associates, Birmingham, USA) added at a 1/2000 dilution in PBS-T, as previously described (BenMohamed et coll., 1997).

C3H/HeJ mice = assay: Isotype analysis of polypeptide-specific serum antibodies (ELISA)
[2] = system: P. falciparum sporozoites and hepatic schizonts; assay: Immunofluorescent Ab assay (IFAT) of sera from mucosally immunized mice
Experimental: FIG. 2: Mucosal immunization elicits parasite-specific antibody responses. Sera were obtained from C3H/HeJ mice at 2 weeks post-immunization by either nasal or sub-lingual route and assayed fro recognition of (a) P. falciparum sporozoites and (B) hepatic schizonts in an IFI assay as described in Material and Methods. The data are representative of three independent experiments.
The reactivity of the sera against native proteins from various stages of the parasite were analyzed by IFAT using either (i) P. falciparum NF54 strain sporozoites (a gift of W. Eling), or (ii) sections from liver biopsies containing day 5 P. falciparum liver schizonts, or (iii) day 6 ½ P. falciparum liver schizonts obtained from a Chimpanzee. IFAT-labeled anti-human IgG, -A, -M (Diagnostic Pasteur France) or anti-mouse (Cappel. Wester Chester. PA) diluted {fraction (1/200 )} were employed as second Abs.

[3] = system: spleen and inguinal lymph node cells of C3H/HeJ mice; assay: Lymphocyte proliferative assay after immunization with LSA3-NRII polypeptides
Experimental: FIG. 3: Systemic cellular immune responses are electited by presentation of lipid-tailed polypeptides to the nasal and sub-lingual mucosal surfaces. Groups of five C3H/HeJ mice were administrated with LSA3-NRII lipid-tailed (black bars) or non-lipidated polypeptide (hatched bars) either a) intranasally, b) sub-lingually, or c) subcutaneously. Two weeks after two administrations, cell suspensions from individual spleens were assayed for in vitro proliferation to the recall polypeptide. Results are expressed as Δ cpm. The background cpm, in unstimulated cells were 1548 fro intranasal, 2356 for sub-lingual and 1965 for subcutaneous routs. Bars represent the mean Δ cpm ± SD in each group. The data were similar and are representative of three separate experiments.

[4] = system: ganglia sub-mandibulaires cells of BALB/c mice

Ac-LEESQVNDDIFNSLVKSVQQEQQHNVK(Pam)NH2 (Ac-LEESQVNDDIFNSLVKSVQQEQQHNVK(Palmitoyl)-NH2; SMILES CCCCCCCCCCCCCCCC(=O)NCCCC[C@H](NC(=O)[C@@H](NC(=O)[C@H](CC(N)=O)NC(=O)[C@H](Cc1c[nH]cn1)NC(=O)[C@H](CCC(N)=O)NC(=O)[C@H](CCC(N)=O)NC(=O)[C@H](CCC(=O)O)NC(=O)[C@H](CCC(N)=O)NC(=O)[C@H](CCC(N)=O)NC(=O)[C@@H](NC(=O)[C@H](CO)NC(=O)[C@H](CCCCN)NC(=O)[C@@H](NC(=O)[C@H](CC(C)C)NC(=O)[C@H](CO)NC(=O)[C@H](CC(N)=O)NC(=O)[C@H](Cc1ccccc1)NC(=O)[C@@H](NC(=O)[C@H](CC(=O)O)NC(=O)[C@H](CC(=O)O)NC(=O)[C@H](CC(N)=O)NC(=O)[C@@H](NC(=O)[C@H](CCC(N)=O)NC(=O)[C@H](CO)NC(=O)[C@H](CCC(=O)O)NC(=O)[C@H](CCC(=O)O)NC(=O)[C@H](CC(C)C)NC(C)=O)C(C)C)[C@@H](C)CC)C(C)C)C(C)C)C(C)C)C(N)=O) [LSA3-NRII lipid-tailed polypeptide, P. falciparum LSA-3 derived polypeptide with palmitoyl tail on side chain of C-terminal lysylamide]
antibody response ([1]; C57BL/6 strain, mucosal or subcutaneous administration): No antibody response
polypeptide-specific antibody responses in serum (ELISA) ([1]; I.N. or S.L. administration, without adjuvant, BALB/c and C3H/HeJ, serum two weeks after the second administration): high titers
mean titers of IgG antibodies, mucosal routes versus S.C. route ([1]; both mucosal routes (I.N., S.L.) compared with S.C., p<0.05): significantly higher
polypeptide specific antibody titers, sub-lingual versus intranasal groups ([1]; p<0.05 in BALB/c and p<0.01 in C3H/HeJ): significantly higher
anti-peptide IgA, IgM and IgG3 (C3H/HeJ mice; all groups (I.N., S.L., S.C.)): low and similar titers
serum antibody isotype response (C3H/HeJ mice; mucosal administration (I.N., S.L.)): preferential IgG2a
serum antibody isotype response (C3H/HeJ mice; subcutaneous route): dominant IgG1
reactivity of induced Abs with infected RBC's ([2]; different steps of intra-erythrocytic maturation): did not react
reactivity of induced Abs with intact parasite by IFAT ([2]; sera of mucosally immunized BALB/c and C3H/HeJ, sporozoite and liver stages): react with the intact parasite
proliferative responses against irrelevant polypeptide (LSA1-J) ([3]; Ag specificity control): lack of responses
proliferative response in inguinal lymph nodes, maximal delta cpm ([3]; S.L. (first value)): 12525 cpm
proliferative responses in spleen cells ([3]; S.L. or I.N. application, without mucosal adjuvant, recall polypeptide): strong proliferative responses
phenotype of lymphoproliferative responses ([3]; mucosal administration, abrogated by antibodies against CD4 but not by anti-CD8): CD4 phenotype
proliferative response in inguinal lymph nodes, maximal delta cpm ([3]; printed 'in S.L'): 16189 cpm
proliferative responses, mucosally versus subcutaneously immunized animals ([3]; same dose, P<0.05): higher levels

Concanavaline A [CON A, reference compound]
immune response (CFSE shift), positive control ([4]; in vitro positive control): maximum immune response

Nh2-K(NεPam)GRQYIKANSKFIGITERGRILKEPVHGV-COOH [TT-pol. (HIV)]
shift of fluorescence (CFSE), immune response ([4]; mouse, in vivo): as intense as that provided by positive CON A control
